# Laboratory results as given in ChEMBL document CHEMBL1201862, “PubChem BioAssay data set” (2004).
#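 Dose response: 5 concentrations. Exposure: 48 h. Format: 96-well plates. Endpoint: linear interpolation; highest concentration if not reached. At the GI50, growth is halved.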 Activity calls are given as the source filed them. No stated cut-off is given here; in the data, active = GI50 up to about 1.1 µM and inactive = higher.
# Legend:
# Assay in all cases: NCI anticancer screen, dose series, 48 h
# HCT-15 = tested on: HCT-15
# OVCAR-5 = tested on: OVCAR-5
# MCF7 = tested on: MCF7
# SF-268 = tested on: SF-268
# 786-0 = tested on: 786-0
# HT-29 = tested on: HT-29
# SF-539 = tested on: SF-539
# TK-10 = tested on: TK-10
# MOLT-4 = tested on: MOLT-4
# SK-MEL-28 = tested on: SK-MEL-28
# IGROV-1 = tested on: IGROV-1
# MDA-N = tested on: MDA-N
# SK-OV-3 = tested on: SK-OV-3
# NCI-H460 = tested on: NCI-H460
# K562 = tested on: K562
# UO-31 = tested on: UO-31
# RPMI-8226 = tested on: RPMI-8226
# HOP-62 = tested on: HOP-62
# LOX IMVI = tested on: LOX IMVI
# OVCAR-4 = tested on: OVCAR-4
SMILES,GI50 (HCT-15),GI50 (OVCAR-5),GI50 (MCF7),GI50 (SF-268),GI50 (786-0),GI50 (HT-29),GI50 (SF-539),GI50 (TK-10),GI50 (MOLT-4),GI50 (SK-MEL-28),GI50 (IGROV-1),GI50 (MDA-N),GI50 (SK-OV-3),GI50 (NCI-H460),GI50 (K562),GI50 (UO-31),GI50 (RPMI-8226),GI50 (HOP-62),GI50 (LOX IMVI),GI50 (OVCAR-4)
CCCCOc1ccc(NC(=N)Nc2ccc(Cl)cc2)cc1,9.35 µM,1.68 µM (inactive),0.135 µM (active),0.92 µM (active),11.1 µM (inactive),0.243 µM (active),0.558 µM (active),5.16 µM (inactive),1.42 µM (inactive),13.2 µM (inactive),1.22 µM (inactive),5.58 µM (inactive),10.6 µM (inactive),3.7 µM (inactive),3.01 µM (inactive),2.43 µM (inactive),3.89 µM (inactive),0.235 µM (active),3.05 µM (inactive),1.84 µM (inactive)
COC(=O)c1nc(Cl)nc(Cl)c1Cl,21.9 µM,23.5 µM (inactive),28.2 µM (inactive),19.1 µM (inactive),17.3 µM (inactive),22.5 µM (inactive),24.5 µM (inactive),21.2 µM (inactive),10.5 µM (inactive),21.1 µM (inactive),22.8 µM (inactive),29.5 µM (inactive),41.9 µM (inactive),32.2 µM (inactive),12.2 µM (inactive),19.2 µM (inactive),1.29 µM (inactive),30.2 µM (inactive),13.4 µM (inactive),19.5 µM (inactive)
COc1cccc2c(NNc3ccccc3)c3ccc([N+](=O)[O-])cc3nc12,33 µM,> 100 µM (inactive),26.4 µM (inactive),19.6 µM (inactive),21.2 µM (inactive),23.6 µM (inactive),36.4 µM (inactive),21.3 µM (inactive),1.03 µM (active),43.2 µM (inactive),21.7 µM (inactive),33.1 µM (inactive),53.6 µM (inactive),32.3 µM (inactive),83.4 µM (inactive),8.67 µM (inactive),7.1 µM (inactive),60.4 µM (inactive),13.6 µM (inactive),42 µM (inactive)
NC(=O)c1ccc2c(c1)S(=O)(=O)c1ccccc1C2=O,> 100 µM,> 100 µM (inactive),> 100 µM (inactive),35.9 µM (inactive),64.6 µM (inactive),> 100 µM (inactive),46.6 µM (inactive),> 100 µM (inactive),> 100 µM (inactive),> 100 µM (inactive),> 100 µM (inactive),> 100 µM (inactive),75 µM (inactive),> 100 µM (inactive),> 100 µM (inactive),> 100 µM (inactive),> 100 µM (inactive),45 µM (inactive),> 100 µM (inactive),> 100 µM (inactive)
O=C(O)/C(Cc1c[nH]nn1)=N\O,> 100 µM,> 100 µM (inactive),> 100 µM (inactive),> 100 µM (inactive),> 100 µM (inactive),> 100 µM (inactive),> 100 µM (inactive),> 100 µM (inactive),> 100 µM (inactive),> 100 µM (inactive),> 100 µM (inactive),> 100 µM (inactive),> 100 µM (inactive),> 100 µM (inactive),> 100 µM (inactive),> 100 µM (inactive),> 100 µM (inactive),> 100 µM (inactive),> 100 µM (inactive),> 100 µM (inactive)
Nc1nc2ncc(SCc3ccc(C(=O)NC(CCC(=O)O)C(=O)O)cc3)cc2c(=O)[nH]1 (stereo not given),> 100 µM,> 100 µM (inactive),> 100 µM (inactive),> 100 µM (inactive),> 100 µM (inactive),> 100 µM (inactive),> 100 µM (inactive),> 100 µM (inactive),> 100 µM (inactive),> 100 µM (inactive),> 100 µM (inactive),> 100 µM (inactive),> 100 µM (inactive),> 100 µM (inactive),> 100 µM (inactive),> 100 µM (inactive),19.4 µM (inactive),> 100 µM (inactive),> 100 µM (inactive),> 100 µM (inactive)
COc1ccc2c(c1)c(=O)c1c(NCCN(C)C)ccc3c(=O)n(CCN(C)C)c(=O)n2c31,< 0.0223 µM,0.254 µM (active),0.0368 µM (active),0.114 µM (active),< 0.0125 µM (active),0.0197 µM (active),0.0376 µM (active),0.141 µM (active),< 0.01 µM (active),0.383 µM (active),< 0.0232 µM (active),0.1 µM (active),0.55 µM (active),< 0.01 µM (active),< 0.01 µM (active),0.163 µM (active),0.0323 µM (active),0.0711 µM (active),0.104 µM (active),0.101 µM (active)
